Assay results from ChEMBL document CHEMBL2040548, “Anti-influenza virus activities of 4-substituted 2,4-dioxobutanoic acid inhibitors” (Antimicrob Agents Chemother, 1996).

What was measured:
[1] = target: Polymerase acidic protein (Influenza A virus (A/Puerto Rico/8/1934(H1N1)), UniProt P03433); test: Inhibition of cap 1 ALMV primed Influenza transcriptase
[2] = target: Polymerase acidic protein (Influenza A virus (strain A/Hong Kong/1/1968 H3N2)) (UniProt Q91MA9); test: Upper respiratory tract challenge; format: functional, organism-based; conditions: Mus musculus

O=C(O)/C(O)=C/C(=O)C1(Cc2ccc(Cl)cc2)CCN(Cc2ccc(Cl)cc2)CC1
IC50 [1]: 540 nM

CC(=O)N[C@@H]1[C@@H](NC(=N)N)C=C(C(=O)O)O[C@@]1(C)[C@H](O)[C@H](O)CO
Log10 reduction [2]: 4.3
